This is an account of results in paper PMC5951580, “The effect of acylation with fatty acids and other modifications on HLA class II:peptide binding and T cell stimulation for three model peptides” (PLoS ONE, 2018).

The conditions of data set [1]: human, in vivo; cited from earlier work.
For data set [2], the system named is PBMCs from healthy donors. Description: Two-week re-stimulation T cell assay with IFN-γ, IL-5 and IL-10 fluorospot. Format: cell-based, human. Conditions: for Frequency of responding donors (all cytokines) / Frequency of responding donors compared to the non-acylated peptide (in words) / Magnitude of the response (SFC, all cytokines) compared to the non-acylated peptide (in words): peptide 50 μg/ml, IFN-γ/IL-5/IL-10 fluorospot, n = 22; for Frequency of responding donors (all cytokines): 14 days stimulation with IL-2, re-stimulation 20h, one positive hit for one cytokine equals a positive donor; for Frequency of responding donors compared to the non-acylated peptide (in words) / Magnitude of the response (SFC, all cytokines) compared to the non-acylated peptide (in words): re-stimulation.

The next data set has as its system HLA-DR alleles. Set-up: species or system human. Conditions: 15 HLA-DR alleles analyzed, IC50 of 1000 nM as binding threshold.
For data set [3] the following is noted: cited from earlier work.
A further data set has as its target HLA-DQA1*01:02/B1*06:02 (Homo sapiens, UniProt P01909+P01920, A157G/A45G/C70R/E118A/E183D/E77G/F83G/G63E/H151Q/H199R/H252R/H253Q/I129T/I235V/I88M/INS77G/K197Q/L117V/L119F/L178F/L71W/L74F/L85Q/L91A/L98M/N214S/P87R/Q116E/Q76K/R102G/R240Q/R75S/R78G/S102Y/S185I/S41F/S97I/T121G/T122I/T172A/T86R/V229M/V68A/V73E/Y34C/Y41F/Y58L). Format: binding. Conditions: threshold IC50 1000 nM.

HLA-DQA1*01:02/B1*06:02, sequence (P01920 33-261 with the stated changes limits assumed, other chains not shown): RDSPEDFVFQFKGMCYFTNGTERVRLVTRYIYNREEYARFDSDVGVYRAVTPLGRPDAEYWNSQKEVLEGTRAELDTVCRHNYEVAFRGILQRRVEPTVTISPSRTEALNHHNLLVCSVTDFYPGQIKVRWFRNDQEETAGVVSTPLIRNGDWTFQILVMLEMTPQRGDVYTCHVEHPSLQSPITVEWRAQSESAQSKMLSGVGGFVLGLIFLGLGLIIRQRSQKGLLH

As to “Peptide 7: Exendin-4 (1–39), 39-aa peptide used for the treatment of diabetes mellitus type 2, non-acylated”, in data set [1], the “Patients treated with the compound that show an immunogenic response” value is 40–60%. Moreover, the “Frequency of responding donors (all cytokines)” value (“Frequency … (all cytokines)” below) in data set [2] came to 40%.

With “Peptide 10: Exendin-4 acylated with C18 via Oeg-Oeg-LγGlu at 20 (WT R to K)”, in data set [2] (14 days stimulation), the “Frequency of responding donors compared to the non-acylated peptide (in words)” value is recorded as “further decreases” and the “Magnitude of the response (SFC, all cytokines) compared to the non-acylated peptide (in words)” value was “decreased magnitudes”.

With “QLLDRGATALVLQVLNVPRLMTQD [Peptide 14, Vatreptacog alfa (285–309) peptide fragment, 25-aa, non-acylated]”, in data set [2], the “Frequency … (all cytokines)” value is given as 45%.

In the case of “Peptide 12: Exendin-4 acylated with C18 via Oeg-Oeg-LγGlu at C-terminus”, in data set [2], the “Frequency … (all cytokines)” value was 10%.

Regarding “Peptide 11: Exendin-4 acylated with C18 via Oeg-Oeg-LγGlu at 27 (K)”, the “Frequency … (all cytokines)” value in data set [2] is reported as “None”.

On to PKYVKQNTLKLAT [Peptide 1], for which the “HLA-DR alleles that bound the peptide with an affinity of 1000 nM or better (number/number analyzed)” value in the data set with HLA-DR alleles is 12/15. Moreover, the “HLA-DR alleles that bound the peptide with an affinity of 1000 nM or better” value with HLA-DR alleles (radiolabeled peptide competition, two-day incubation, three or more independent experiments) turned out to be 80%. In addition, in data set [3], the “Donors with an immunogenic response” value is on record as “approximately 30%”. In addition, the “HLA-DQA1*01:02/B1*06:02 binding capacity (binder / non-binder)” value at HLA-DQA1*01:02/B1*06:02 is given as “non-binder”. The “Cytokine response (IFN-γ, IL-5, IL-10 secreting cells) in words” value in data set [2] (peptide 5 μg/ml, 14 days stimulation, re-stimulation 20 hours, fluorospot, seven donors) was “significant numbers of IFN-γ, IL-5 and IL-10 producing cells”.

Regarding “Peptide 13: Exendin-4 acylated with 2 x C18 via Oeg-Oeg-LγGlu at 12 (K) + 27 (K)”, in data set [2] (14 days stimulation), the “Frequency of responding donors compared to the non-acylated peptide (in words)” value is listed as “decreased” and the “Magnitude of the response (SFC, all cytokines) compared to the non-acylated peptide (in words)” value is “decreased”.
